# How the values were obtained:
# N. gonorrhoeae CDC-0197 = test: Liquid broth MIC in Fastidious broth; conditions: Neisseria gonorrhoeae, CDC0197, read-out: Minimum Inhibitory Concentration, CDC-0197
# A. baumannii CDC-0045 = test: microbe, parasite or virus in culture; format: cell-based; conditions: Acinetobacter baumannii, CDC0045, read-out: MIC, A. baumannii CDC-0045
# P. aeruginosa ATCC 35151 = test: microbe, parasite or virus in culture; format: cell-based; conditions: Pseudomonas aeruginosa, ATCC35151, read-out: Minimum inhibitory concentration, P. aeruginosa ATCC 35151
# N. gonorrhoeae WHO Q = test: Liquid broth MIC in Fastidious broth; conditions: Neisseria gonorrhoeae, read-out: Minimum Inhibitory Concentration, WHO Q
# A. baumannii 1258916 = test: microbe, parasite or virus in culture; format: cell-based, Acinetobacter baumannii; conditions: Acinetobacter baumannii, 1258916, read-out: MIC, A. baumannii 1258916
# N. gonorrhoeae WHO L = test: Liquid broth MIC in Fastidious broth; conditions: Neisseria gonorrhoeae, read-out: Minimum Inhibitory Concentration, WHO L
# Experimental: Liquid broth-based assays were used for antibacterial testing of PBP inhibitors in Neisseria gonorrhoeae. Briefly, cryo-preserved bacterial cultures of clinical strains were streaked for isolation on Chocolate Agar (72 g/L (2×) GC Agar Base (BD #228950) and 2% (2×) Hemoglobin was autoclaved at 121° C. for 20 minutes to sterilize. Once cooled to ˜50° C. the 2×GC Agar Base and 2× Hemoglobin solutions are combined and 1% IsoVitaleX Enrichment (BD #211876) was added to the solution). Strains were incubated at 36° C. and 5% CO2 to allow growth of colonies, 24 hours before inoculum preparation. 2-fold serial dilutions of test compounds were conducted in a 96 well plate with a final volume of 75 μL per well at 2-fold the final desired concentration in Fastidious broth (Remel #R07664). For preparation of assay inoculum, a direct suspension was prepared by aseptically swabbing 10-15 colonies from agar plates into culture tubes containing 2 mL of fresh sterile saline. After the dilution plates were set up, direct suspensions were then diluted in a cuvette containing sterile saline and the optical density was measured at 600 nm. Inocula were diluted such that 75 μL of this culture in Fastidious broth results in a starting bacterial concentration of 5×10^5 CFU/mL when added to the dilution plates. The plates were incubated for ˜24 hours at 36° C. and 5% CO2.
# N. gonorrhoeae MS11 = test: Liquid broth MIC in Fastidious broth; conditions: Neisseria gonorrhoeae, MS11, read-out: Minimum Inhibitory Concentration, MS11
# P. aeruginosa CDC-0095 = test: microbe, parasite or virus in culture; format: cell-based; conditions: Pseudomonas aeruginosa, CDC0095, read-out: Minimum inhibitory concentration, P. aeruginosa CDC-0095
# [1] = test system: B. thailandensis ATCC 700388; test: microbe, parasite or virus in culture; format: cell-based; conditions: Burkholderia thailandensis, ATCC700388, read-out: Minimum inhibitory concentration (MIC), B. thailandensis ATCC 700388
# [2] = molecular target: T1, PBP3 from Acinetobacter baumannii (ATCC 19606) (Acinetobacter baumannii, UniProt A0ABX6CK25); test: Bocillin-FL fluorescence polarization competition binding, A. baumannii PBP3; conditions: fluorescence polarization competition binding assay using Bocillin-FL; read-out: A. baumannii PBP3 Potency
# T1 sequence (A0ABX6CK25 64-610): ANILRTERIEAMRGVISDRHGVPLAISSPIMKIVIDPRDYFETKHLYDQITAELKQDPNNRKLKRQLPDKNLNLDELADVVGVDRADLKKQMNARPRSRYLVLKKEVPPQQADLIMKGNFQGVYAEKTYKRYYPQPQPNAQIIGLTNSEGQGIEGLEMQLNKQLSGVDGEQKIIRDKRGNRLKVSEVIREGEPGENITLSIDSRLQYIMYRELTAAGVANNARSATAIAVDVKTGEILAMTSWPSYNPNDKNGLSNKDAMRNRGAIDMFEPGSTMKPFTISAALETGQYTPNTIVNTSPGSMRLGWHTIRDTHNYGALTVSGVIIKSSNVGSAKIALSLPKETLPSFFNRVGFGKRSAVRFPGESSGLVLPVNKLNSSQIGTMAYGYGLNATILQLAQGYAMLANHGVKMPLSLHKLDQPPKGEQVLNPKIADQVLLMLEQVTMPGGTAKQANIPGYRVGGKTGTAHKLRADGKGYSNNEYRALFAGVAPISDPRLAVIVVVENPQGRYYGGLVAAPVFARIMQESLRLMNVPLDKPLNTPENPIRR
# Method in brief: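 Purified PBP was preincubated with inhibitor (E. coli PBP3 1.5 μM, 30 min; P. aeruginosa PBP3 0.75 μM, A. baumannii PBP3 0.2 μM and PBP1a 1 μM, 15 min), then Bocillin-FL (0.1 μM; 0.05 μM for PBP1a) added and FP read up to 60 min. EC50 = 50% loss of bound probe.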
SMILES,MIC (N. gonorrhoeae CDC-0197),MIC (A. baumannii CDC-0045),MIC (P. aeruginosa ATCC 35151),MIC (N. gonorrhoeae WHO Q),MIC (A. baumannii 1258916),MIC (N. gonorrhoeae WHO L),MIC (N. gonorrhoeae MS11),MIC (P. aeruginosa CDC-0095),MIC [1],IC50 [2]
"O=C(NCCCS(=O)(=O)N1CCN(C(=O)NC(C(=O)N[C@H]2Cc3ccc(F)c(C(=O)O)c3OB2O)c2cc(F)c(O)c(O)c2Cl)C1=O)c1cccnc1 (stereo partly drawn) [Example 273, (3R)-3-(2-(2-chloro-5-fluoro-3,4-dihydroxyphenyl)-2-(3-((3-(nicotinamido)propyl)sulfonyl)-2-oxoimidazolidine-1-carboxamido)acetamido)-7-fluoro-2-hydroxy-3,4-dihydro-2H-benzo[e][1,2]oxaborinine-8-carboxylic acid]",16 to 32 µg/mL,< 1 µg/mL,< 1 µg/mL,16 to 32 µg/mL,< 1 µg/mL,> 64 µg/mL,16 to 32 µg/mL,32 to 64 µg/mL,2 to 4 µg/mL,< 10 µM
"O=C(NCCCS(=O)(=O)N1CCN(C(=O)NC(C(=O)N[C@H]2Cc3ccc(F)c(C(=O)O)c3OB2O)c2cc(F)c(O)c(O)c2Cl)C1=O)c1nccs1 (stereo partly drawn) [Example 274, (3R)-3-(2-(2-chloro-5-fluoro-3,4-dihydroxyphenyl)-2-(2-oxo-3-((3-(thiazole-2-carboxamido)propyl)sulfonyl)imidazolidine-1-carboxamido)acetamido)-7-fluoro-2-hydroxy-3,4-dihydro-2H-benzo[e][1,2]oxaborinine-8-carboxylic acid]",16 to 32 µg/mL,< 1 µg/mL,< 1 µg/mL,16 to 32 µg/mL,< 1 µg/mL,> 64 µg/mL,16 to 32 µg/mL,> 128 µg/mL,> 128 µg/mL,< 10 µM
"O=C(O)c1c(F)ccc2c1OB(O)[C@@H](NC(=O)C(NC(=O)N1CCN(S(=O)(=O)CCCNC(=O)[C@@H]3CCCN3)C1=O)c1cc(F)c(O)c(O)c1Cl)C2 (stereo partly drawn) [Example 275, (3R)-3-(2-(2-chloro-5-fluoro-3,4-dihydroxyphenyl)-2-(2-oxo-3-((3-((S)-pyrrolidine-2-carboxamido)propyl)sulfonyl)imidazolidine-1-carboxamido)acetamido)-7-fluoro-2-hydroxy-3,4-dihydro-2H-benzo[e][1,2]oxaborinine-8-carboxylic acid]",16 to 32 µg/mL,< 1 µg/mL,< 1 µg/mL,16 to 32 µg/mL,< 1 µg/mL,> 64 µg/mL,16 to 32 µg/mL,8 to 16 µg/mL,< 1 µg/mL,< 10 µM
"O=C(NCCCS(=O)(=O)N1CCN(C(=O)NC(C(=O)N[C@H]2Cc3ccc(F)c(C(=O)O)c3OB2O)c2cc(F)c(O)c(O)c2Cl)C1=O)Nc1ccc(O)cc1 (stereo partly drawn) [Example 276, (3R)-3-(2-(2-chloro-5-fluoro-3,4-dihydroxyphenyl)-2-(3-((3-(3-(4-hydroxyphenyl)ureido)propyl)sulfonyl)-2-oxoimidazolidine-1-carboxamido)acetamido)-7-fluoro-2-hydroxy-3,4-dihydro-2H-benzo[e][1,2]oxaborinine-8-carboxylic acid]",16 to 32 µg/mL,2 to 4 µg/mL,< 1 µg/mL,16 to 32 µg/mL,< 1 µg/mL,> 64 µg/mL,16 to 32 µg/mL,8 to 16 µg/mL,> 128 µg/mL,< 10 µM
